The record followed here is ChEMBL document CHEMBL1649243, “TEM-168, a heretofore laboratory-derived TEM beta-lactamase variant found in an Escherichia coli clinical isolate” (2009).

In brackets after ≈: the same amount, converted by molar mass.

Holding throughout (format): functional
Assay [1] deals with Escherichia coli. Briefly: Antimicrobial activity against Escherichia coli DH10B transformant harboring blaTEM-168 gene by Etest.
Assay [2] deals with Escherichia coli. Briefly: Antimicrobial activity against Escherichia coli NO8-1503 harboring blaTEM-168 gene by Etest.
Assay [3] relates to Escherichia coli. Briefly: Antimicrobial activity against Escherichia coli DH10B transformant harboring blaTEM-168 gene by broth microdilution method.
Assay [4] has as its system Escherichia coli. In words: Antimicrobial activity against Escherichia coli NO8-1503 harboring blaTEM-168 gene by broth microdilution method.
Assay [5] relates to Escherichia coli. In words: Antimicrobial activity against Escherichia coli DH10B transformant harboring blaTEM-168 gene by disk diffusion method.
In assay [6] the test system is Escherichia coli. Briefly: Antimicrobial activity against Escherichia coli NO8-1503 harboring blaTEM-168 gene by Etest in presence of clavulanic acid.
Assay [7] relates to Escherichia coli. In words: Antimicrobial activity against Escherichia coli DH10B by broth microdilution method in presence of clavulanic acid.
In assay [8] the test system is Escherichia coli. Briefly: Antimicrobial activity against Escherichia coli DH10B by Etest.
For assay [9], the system named is Escherichia coli. Briefly: Antimicrobial activity against Escherichia coli DH10B transformant harboring blaTEM-168 gene by Etest in presence of clavulanic acid.
The test system of assay [10] is Escherichia coli. In words: Antimicrobial activity against Escherichia coli DH10B by Etest in presence of clavulanic acid.
Assay [11] relates to Escherichia coli. Briefly: Antimicrobial activity against Escherichia coli DH10B by broth microdilution method.
Assay [12] deals with Escherichia coli. In words: Antimicrobial activity against Escherichia coli DH10B transformant harboring blaTEM-168 gene by broth microdilution method in presence of clavulanic acid.
Assay [13] relates to Escherichia coli. Briefly: Antimicrobial activity against Escherichia coli DH10B by disk diffusion method in presence of clavulanic acid.
The test system of assay [14] is Escherichia coli. Briefly: Antimicrobial activity against Escherichia coli NO8-1503 harboring blaTEM-168 gene by disk diffusion method in presence of clavulanic acid.
The test system of assay [15] is Escherichia coli. In words: Antimicrobial activity against Escherichia coli DH10B transformant harboring blaTEM-168 gene by disk diffusion method in presence of clavulanic acid.
Assay [16] has as its system Escherichia coli. In words: Antimicrobial activity against Escherichia coli NO8-1503 harboring blaTEM-168 gene by disk diffusion method.
Assay [17] concerns Escherichia coli. In words: Antimicrobial activity against Escherichia coli DH10B by disk diffusion method.
The test system of assay [18] is Escherichia coli. In words: Antimicrobial activity against Escherichia coli NO8-1503 harboring blaTEM-168 gene by broth microdilution method in presence of clavulanic acid.
For assay [19], the system named is Escherichia coli. Briefly: Antimicrobial activity against Escherichia coli NO8-1503 harboring blaTEM-168 gene by Etest in presence of Tazobactam.
The test system of assay [20] is Escherichia coli. Briefly: Antimicrobial activity against Escherichia coli DH10B transformant harboring blaTEM-168 gene by Etest in presence of Tazobactam.
Assay [21] has as its system Escherichia coli. In words: Antimicrobial activity against Escherichia coli DH10B by Etest in presence of Tazobactam.

Regarding `CO/N=C(\C(=O)N[C@@H]1C(=O)N2C(C(=O)[O-])=C(C[N+]3(C)CCCC3)CS[C@H]12)c1csc(N)n1`, the MIC in the assay with Escherichia coli [1] turned out to be 2 µg/mL (≈ 4.16 µM); against Escherichia coli [2], 2 µg/mL (≈ 4.16 µM); in the assay with Escherichia coli [3], 4 µg/mL (≈ 8.32 µM); against Escherichia coli [4], 8 µg/mL (≈ 16.6 µM).

On to `CC(C)(O/N=C(\C(=O)N[C@@H]1C(=O)N2C(C(=O)[O-])=C(C[n+]3ccccc3)CS[C@H]12)c1csc(N)n1)C(=O)O` [CEFTAZIDIME], for which the “inhibition zone (IZ)” value with Escherichia coli [5] worked out at 8 mm; in the assay on Escherichia coli [13] it was 18 mm; in the assay with Escherichia coli [14], 11 mm; in the assay on Escherichia coli [15], 10 mm; with Escherichia coli [16], 8 mm; with Escherichia coli [17], 16 mm. The MIC stood at 3 µg/mL (≈ 5.49 µM) in the assay with Escherichia coli [1]; 3 µg/mL (≈ 5.49 µM) with Escherichia coli [2]; 0.75 µg/mL in the assay on Escherichia coli [6]; 0.25 µg/mL in the assay on Escherichia coli [7]; 1 µg/mL (≈ 1.83 µM) in the assay on Escherichia coli [8]; 1 µg/mL in the assay on Escherichia coli [9]. The MIC with Escherichia coli [10] is 0.38 µg/mL; with Escherichia coli [11], at most 0.25 µg/mL; in the assay on Escherichia coli [12], 1 µg/mL; against Escherichia coli [3], 4 µg/mL (≈ 7.32 µM); in the assay on Escherichia coli [4], 4 µg/mL (≈ 7.32 µM); in the assay with Escherichia coli [18], 2 µg/mL.

In the case of `CO[C@@]1(NC(=O)Cc2cccs2)C(=O)N2C(C(=O)O)=C(COC(N)=O)CS[C@@H]21` [CEFOXITIN], the figures for the MIC against Escherichia coli [1], against Escherichia coli [2] and with Escherichia coli [8] were 6 µg/mL (≈ 14 µM), 12 µg/mL (≈ 28.1 µM) and 8 µg/mL (≈ 18.7 µM), respectively.

On to `CCN1CCN(C(=O)N[C@@H](C(=O)N[C@@H]2C(=O)N3[C@@H]2SC(C)(C)[C@@H]3C(=O)O)c2ccccc2)C(=O)C1=O` [PIPERACILLIN], for which the MIC with Escherichia coli [19] is above 256 µg/mL; with Escherichia coli [20], above 256 µg/mL; in the assay on Escherichia coli [21], 1.5 µg/mL.

For the compound `CC1(C)S[C@@H]2[C@H](NC(=O)[C@H](N)c3ccc(O)cc3)C(=O)N2[C@H]1C(=O)O` [AMOXICILLIN], the values for the MIC in the assay with Escherichia coli [6], with Escherichia coli [9] and in the assay on Escherichia coli [10] were 32 µg/mL, 64 µg/mL and 3 µg/mL, respectively.

Take `COCC1=C(C(=O)O)N2C(=O)[C@@H](NC(=O)/C(=N\OC)c3csc(N)n3)[C@H]2SC1` [CEFPODOXIME]: the “inhibition zone (IZ)” value in the assay with Escherichia coli [5] was found to be 20 mm; with Escherichia coli [13], 21 mm; in the assay on Escherichia coli [14], 15 mm; in the assay with Escherichia coli [15], 16 mm; in the assay on Escherichia coli [16] it was 20 mm; in the assay on Escherichia coli [17] it was 27 mm. Moreover, the MIC with Escherichia coli [7] is at most 0.125 µg/mL; with Escherichia coli [11], 1 µg/mL (≈ 2.34 µM); in the assay on Escherichia coli [12], 0.25 µg/mL; against Escherichia coli [3] it was 4 µg/mL (≈ 9.36 µM); in the assay with Escherichia coli [4] it was 8 µg/mL (≈ 18.7 µM); in the assay with Escherichia coli [18], 0.5 µg/mL.

`CO/N=C(\C(=O)N[C@@H]1C(=O)N2C(C(=O)O)=C(COC(C)=O)CS[C@H]12)c1csc(N)n1` [CEFOTAXIME]: the “inhibition zone (IZ)” value in the assay on Escherichia coli [5] is recorded as 26 mm; in the assay with Escherichia coli [13], 33 mm; in the assay with Escherichia coli [14] it was 24 mm; in the assay on Escherichia coli [15], 30 mm; in the assay with Escherichia coli [16], 23 mm; in the assay on Escherichia coli [17], 29 mm. Further, the MIC in the assay with Escherichia coli [1] was 0.25 µg/mL (≈ 0.549 µM); in the assay on Escherichia coli [2], 0.25 µg/mL (≈ 0.549 µM); in the assay with Escherichia coli [6], 0.094 µg/mL; in the assay with Escherichia coli [7], at most 0.12 µg/mL; in the assay with Escherichia coli [8], below 0.25 µg/mL; with Escherichia coli [9], 0.094 µg/mL. Further, the MIC with Escherichia coli [10] is 0.094 µg/mL; with Escherichia coli [11], at most 0.25 µg/mL; against Escherichia coli [4], at most 0.25 µg/mL; with Escherichia coli [18], at most 0.12 µg/mL.
